Source: patent US4748161A, “Triterpenyl esters of organic acids and hypolipidemic agents composed of them” (Amano Pharmaceutical Co., Ltd., priority 1984, dated 1988)
Read-outs that look alike come from different tables or passages of the source.

Assays:
[1] = Body weight of rats in method B; set-up: species or system male Wistar strain rats; details: rat, in vivo
Protocol: (§1) Male Wistar strain rats (100±1 g, each 8 rats were formed into a group except that the control group fed with a hyperlipidemic diet was formed of 16 rats) were used as test animals. A powdery diet (CE-2, supplied by Clea Japan, Inc.) was used as ordinary diet. The hyperlipidemic diet was prepared by fortifying the ordinary diet with cholesterol (1%) and cholic acid (0.5%). Each test compound (1%) for administration was admixed with the hyperlipidemic diet. Each two rats were kept in a cage and given the prescribed diet and water ad libitum. Thus the rats were fed for 4 weeks at a constant temperature of 23±1° C. and a constant R.H. of 55±5%. Finally, the rats were fasted from food except water for 16 hours (from 4 p.m. of the 28th test day to 8 a.m. of the 29th test day), and under anesthesia with pentbarbital sodium (tradename: Nembutal), blood was taken from each rat through the descending abdominal arota. Then, TC, HDL-C, TG, PL, and LPO in the serum were measured in the following manner.

[2] = test system: serum lipids and serum lipid hydroperoxide; experiment: Pharmacological test method B for anti-hyperlipidemic activity (serum lipids, 4 weeks feeding); assay type: in vivo, male Wistar strain rats; set-up: AI Diff.: unit not given here; details: for AI [(TC - HDL-C)/(HDL-C)] / HDL-C in serum / LPO in serum / PL in serum / TC in serum / TG in serum: 1% in hyperlipidemic diet, 4 weeks; for change in vivo at 1 % in diet: Rattus norvegicus, po, 672 h; for change in vivo at 1 % in diet / AI Diff. / HDL-C Diff. / LPO Diff. / PL Diff. / TC % of diff. / TC Diff. / TG Diff.: versus control group; for HDL-C rise compared with normal diet group: versus normal diet group
Protocol: Pharmacological test method B for anti-hyperlipidemic acitivity (the term "method B" was used in the present specification)
as §1
A TC kit-K (supplied by Nippon Shoji Kaisha, Ltd.) was used. The principle of this determination is as follows: The ester of cholesterol in the serum is hydrolyzed with cholesterol-ester hydrolase into free cholesterol and fatty acids. All the free cholesterol is oxidized with cholesterol oxydase to form Δ^4 -cholestenone and hydrogen peroxide. Phenol and 4-aminoantipyrin are oxidatively condensed together by the formed hydrogen peroxide and peroxydase. The produced red quinone coloring matter is measured by colorimetry for absorbance at 500 nm using a spectrophotometer, thereby determining the TC:
The color-developing liquid (3.0 ml) is well mixed with the sample serum (0.02 ml). The mixture once heated at 37° C. for 15 minutes, is measured for absorbance at 500 nm with a spectrophotometer. The found absorbance is denoted by EA. On the other hand, the color-developing liquid (3.0 ml) is well mixed with the standard solution. The mixture is treated and measured for absorbance at 500 nm in the same manner as the above. This found absorbance is denoted by ES. Both EA and ES are determined with reference to the value of the blank test conducted using the color-developing liquid (3.0 ml) alone. [formula]
An HDL-C kit-N (supplied by Nippon Shoji Kaisha, Ltd.) was used. […] (VLDL) and lo density lipoprotein (LDL) in the serum is precipitated by the action of heparin. The precipitate is separated by centrifugation. High density lipoprotein (HDL) is dissolved in the separated supernatant. Esters of cholesterol in this fraction is hydrolyzed with cholesterol-ester hydrolase into free cholesterol and fatty acids. All the free cholesterol is oxidized with cholesterol oxydase to form Δ^4 -cholestenone and hydrogen peroxide. Phenol and 4-aminoantipyrine are oxidatively condensed together by the formed hydrogen peroxide and peroxydase. The produced red quinone coloring matter is measured by colorimetry for absorbance at 500 nm using a spectrophotometer, thereby determining the HDL-C.
A PL kit-K (supplied by Nippon Shoji Kaisha, Ltd.) was used for the determination. Lecithin, sphingomyelin, and lysolecithin are decomposed by phospholipase D into choline and phosphatidic acid, N-acylsphingosyl phosphate, or lysophosphatidic acid, respectively. The resulting choline is quantitatively decomposed by choline oxydase into hydrogen peroxide and betaine. With this hydrogen peroxide, and aid of peroxydase, phenol and 4-aminoantipyrin are condensed into red quinone pigment, then the absorbance at 500 nm of which is measured with a spectrophotometer, thereby determining the PL. […]

SMILES	Body weight during feed period, 1st day [1] [g]	Body weight during feed period, 8th day [1] [g]	Body weight during feed period, 15th day [1] [g]	Body weight during feed period, 22nd day [1] [g]	Body weight during feed period, 28th day [1] [g]	Body weight just before blood sampling, 29th day [1] [g]	AI [(TC - HDL-C)/(HDL-C)] [2]	HDL-C in serum [2] [mg/dL]	LPO in serum [2] [nmol/mL]	PL in serum [2] [mg/dL]	TC in serum [2] [mg/dL]	TG in serum [2] [mg/dL]	change in vivo at 1 % in diet ([2]; read-out: AI % of diff.) [%]	change in vivo at 1 % in diet ([2]; read-out: HDL-C % of diff.) [%]	change in vivo at 1 % in diet ([2]; read-out: LPO % of diff.) [%]	change in vivo at 1 % in diet ([2]; read-out: PL % of diff.) [%]	change in vivo at 1 % in diet ([2]; read-out: TG % of diff.) [%]	AI Diff. [2]	HDL-C Diff. [2]	LPO Diff. [2] [nmol/mL]	also measured
C=C(CCC(C)C1CCC2(C)C3CCC4C(C)(C)C(OC(=O)C(C)=Cc5ccc(N)c(OC)c5)CCC45CC35CCC12C)C(C)C (stereo not drawn) [Example 191, 24-Methylenecycloartanyl ester of 4-amino-3-methoxy-α-methylcinnamic acid]	104 ± 3.7	142 ± 9.6	188 ± 12.9	239 ± 14.9	268 ± 21.7	257 ± 20.6	5.634	28.4	2.08	117.3	188.4	60.4									
COc1cc(C=C(C)C(=O)OC2CCC34CC35CCC3(C)C(C(C)CCC=C(C)C)CCC3(C)C5CCC4C2(C)C)ccc1O (stereo not drawn) [Example 114, cycloartenyl ester of 4-hydroxy-3-methoxy-α-methylcinnamic acid]	105 ± 3.3	145 ± 9.5	194 ± 18.0	247 ± 16.6	277 ± 14.9	265 ± 14.5	4.711	24.2	2.04	96.7	138.2	39.0	-78.4	79.3	-27.7	-31	-31	-17.05	+10.7 mg/dl	-0.78	PL Diff. [2]: -43.4 mg/dL; TC % of diff. [2]: -55.0%; TC Diff. [2]: -169.1 mg/dL; TG Diff. [2]: -17.5 mg/dL
CC(C)=CCCC(C)C1CCC2(C)C3CCC4C(C)(C)C(OC(=O)C(C)=Cc5ccc(N)cc5)CCC45CC35CCC12C (stereo not drawn) [Example 205, Cycloartenyl ester of p-amino-α-methylcinnamic acid]	105 ± 3.7	142 ± 9.8	188 ± 13.2	238 ± 19.8	267 ± 20.4	256 ± 19.2	4.144	37.4	2.02	113.1	192.4	60.3									
CCC(=Cc1ccc(O)cc1)C(=O)OC1CCC23CC24CCC2(C)C(C(C)CCC=C(C)C)CCC2(C)C4CCC3C1(C)C (stereo not drawn) [Example 130, cycloartenyl ester of 4-hydroxy-α-ethylcinnamic acid]	105 ± 3.3	144 ± 9.3	194 ± 18.1	245 ± 15.7	271 ± 18.0	258 ± 20.2	8.586	21.0	2.07	107.2	201.3	53.4	-60.5	55.6	-26.6	-23.5	-5.5	-13.17	+7.5 mg/dl	-0.75	PL Diff. [2]: -32.9 mg/dL; TC % of diff. [2]: -34.5%; TC Diff. [2]: -106.0 mg/dL; TG Diff. [2]: -3.1 mg/dL
C=C(CCC(C)C1CCC2(C)C3CCC4C(C)(C)C(OC(=O)C(C)=Cc5ccc(O)c(OC)c5)CCC45CC35CCC12C)C(C)C (stereo not drawn) [Example 118, 24-methylenecycloartanyl ester of 4-hydroxy-3-methoxy-α-methylcinnamic acid]	106 ± 3.4	147 ± 9.2	192 ± 17.8	243 ± 15.4	274 ± 18.4	259 ± 20.4	1.943	47.4	2.08	98.3	139.5	51.4	-91.9	251	-26.2	-29.8	-9	-19.82	+33.9 mg/dl	-0.74	PL Diff. [2]: -41.8 mg/dL; TC % of diff. [2]: -54.6%; TC Diff. [2]: -168.2 mg/dL; TG Diff. [2]: -5.1 mg/dL; HDL-C rise compared with normal diet group [2]: remarkable rises
COc1ccc(N)cc1C(=O)OC1CCC23CC24CCC2(C)C(C(C)CCC(C)=C(C)C)CCC2(C)C4CCC3C1(C)C (stereo not drawn) [Example 173, cyclobranyl ester of 5-amino-2-methoxybenzoic acid]	105 ± 3.6	142 ± 10.5	190 ± 18.2	240 ± 23.5	271 ± 24.2	258 ± 23.6	3.671	58.4	2.23	127.2	272.8	65.2									HDL-C rise compared with normal diet group [2]: remarkable rises
COc1cc(C(=O)OC2CCC34CC35CCC3(C)C(C(C)CCC=C(C)C)CCC3(C)C5CCC4C2(C)C)ccc1N (stereo not drawn) [Example 167, cycloartenyl ester of 4-amino-3-methoxy benzoic acid]	105 ± 3.4	143 ± 10.4	191 ± 18.4	241 ± 21.7	272 ± 20.8	259 ± 20.6	2.405	79.6	2.28	126.4	271.0	67.1									HDL-C rise compared with normal diet group [2]: remarkable rises
